Measurements published in PubChem BioAssay (NCI).
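48-hour exposure; five concentrations; linearly interpolated endpoints. The concentration for 50% growth inhibition is given as GI50. TGI: total growth inhibition.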

How the values were obtained:
Assay in all cases: NCI anticancer screen, dose series, 48 h
[1] = system: SN12C renal
[2] = system: RXF 393 renal
[3] = system: OVCAR-4 ovarian
[4] = system: EKVX NSCLC
[5] = system: OVCAR-3 ovarian
[6] = system: RPMI-8226 leukemia
[7] = system: CAKI-1 renal
[8] = system: M14 melanoma
[9] = system: NCI-H226 lung
[10] = system: IGROV1 ovarian

SMILES	GI50 [1] [µM]	TGI [1] [µM]	GI50 [2] [µM]	TGI [2] [µM]	GI50 [3] [µM]	TGI [3] [µM]	GI50 [4] [µM]	TGI [4] [µM]	GI50 [5] [µM]	TGI [5] [µM]	GI50 [6] [µM]	TGI [6] [µM]	GI50 [7] [µM]	TGI [7] [µM]	GI50 [8] [µM]	TGI [8] [µM]	GI50 [9] [µM]	TGI [9] [µM]	GI50 [10] [µM]	TGI [10] [µM]
CN1CCN(c2ccc3nc(-c4cc(C(C)(C)C)c(O)c(C(C)(C)C)c4)[nH]c3c2)CC1	4.64	16.5	1.72	3.52	5.43	19	4.3	16.5	4.06	14	2.08	4.85	1.75	3.49	1.68	3.37	14.7	32.4	3.65	12.6
COc1cc(OC)c2c(=O)c(O)c(-c3ccc(OC)c(OC)c3)oc2c1	–	> 100	–	56.6	–	2.31	–	> 100	–	> 100	–	> 31.6	–	> 31.4	–	> 31.6	–	> 100	–	> 31.6
O=C1OC(c2ccc(O)c(-c3ccccc3)c2)(c2ccc(O)c(-c3ccccc3)c2)c2c(Cl)c(Cl)c(Cl)c(Cl)c21	–	> 100	–	> 100	–	> 100	–	> 100	–	> 100	–	> 100	–	> 100	–	> 100	–	> 100	–	> 100
CC(ONC(=O)c1cc(C(F)(F)F)cc(C(F)(F)F)c1)C(=O)Nc1ccc(Cl)cc1 (stereo not given)	5.44	> 100	5.95	35.6	4.64	> 100	4.46	> 63	4.25	> 76.6	2.27	6.98	20.3	> 76.6	7.46	25.3	7.31	> 64.4	8.86	> 52
CC1(C)N=C(N)N=C(N)N1c1ccc(F)c(C(F)(F)F)c1	5.13	> 100	> 31.5	> 100	22.6	> 100	1.53	> 100	5.62	> 100	3.42	> 100	4.92	> 93.1	0.827	> 100	> 27.6	> 100	0.53	> 100
CC(=O)N1CC2Nc3ccccc3C2CC1CO (stereo not given)	–	> 100	–	> 100	–	> 100	–	> 100	–	> 100	–	> 100	–	> 100	–	> 100	–	> 100	–	> 100
Cn1c(COC(=O)N2CCCCC2)nc2c(N3CCOCC3)nc(-c3ccccc3)nc21	0.868	2.17	0.508	1.76	0.638	1.85	1.22	2.65	0.182	0.39	0.257	0.814	0.354	1.51	0.509	1.89	1.59	3.62	0.534	1.81
Cc1ccccc1C(=O)Oc1ccc(Oc2ccccc2)cc1	–	> 100	–	> 100	–	> 100	–	> 100	–	> 100	–	> 100	–	> 100	–	> 100	–	> 100	–	> 100
CCC[CH2][Sn]([CH2]CCC)([O]C(=O)c1cccc(F)c1)[O]C(=O)c1cccc(F)c1	1.29	3.16	0.185	0.758	2.05	3.83	1.3	2.96	0.956	2.17	0.329	2.02	0.369	1.43	1.34	2.88	1.16	2.4	1.43	2.93
O=C1C=C(Nc2ccccc2C(=O)CC(=O)C(=O)Nc2cccc(C(F)(F)F)c2)c2ccccc2C1=O	–	36.3	–	93.3	–	> 87.4	–	98.7	–	53.8	–	> 100	–	99.8	–	31.7	–	> 100	–	> 100
CCC(Sc1nnc2c3ccccc3n(CC)c2n1)C(=O)Nc1ccccc1OC (stereo not given)	3.47	> 100	64	> 100	> 75.7	> 100	1.08	> 30.1	8.49	> 79.4	4.35	> 72.8	0.76	5.32	> 100	> 100	53.6	> 100	> 93.8	> 100
COc1cccc(/C=N\Nc2ccc([N+](=O)[O-])cn2)c1O	4	62	2.79	12.7	4.28	> 100	3.59	29.3	2.38	12	3.21	27.8	1.74	4.14	3.34	25.9	3.72	26.2	1.91	13.5
Cc1nn(C(=O)c2ccc(Cl)cc2)c2c1C(c1ccc([N+](=O)[O-])cc1)SC(N)=N2 (stereo not given)	–	> 10	–	> 10	–	> 10	–	> 10	–	> 10	–	> 10	–	> 10	–	> 10	–	> 10	–	> 10
Cc1cc(NS(=O)(=O)c2ccc(NC(=O)c3cccc4c(N)c5ccccc5nc34)cc2)no1	–	40.3	–	31.9	–	70.5	–	> 100	–	52.8	–	62.6	–	80.4	–	54	–	33.4	–	59.3
CC(=O)O[C@@H]1CO[C@H]2O[C@H]3[C@@H](C(C=O)=C[C@H](O)[C@@H]4C5=C(C(C)C)CC[C@]5(C)CC[C@@]34C)[C@@]2(O)C1=O	–	0.448	–	0.362	–	0.943	–	1.28	–	0.278	–	1.6	–	0.486	–	0.723	–	1.02	–	0.714
